Values of other authors in patent US8815929B2, “Method and therapeutic/cosmetic topical compositions for the treatment of rosacea and skin erythema using α1-adrenoceptor agonists” (Allergan, Inc., priority 2004, dated 2014).
Counter-ions that a name gives are not always drawn.

Legend:
[1] = retrospective study in man
[2] = used intranasally and ophthalmically for decades
[3] = rabbits; injection subcutaneously
[4] = dog, cat, rabbit or mouse; dosages close to those used in man; manufacturers' report

## Cc1cc(C(C)(C)C)c(O)c(C)c1CC1=NCCN1 [oxymetazoline, 2-(3-Hydroxy-2,6-dimethyl-4-t-butylbenzyl)-2-imidazoline hydrochloride]
[1]
  association between the drug and congenital disorders: no association was found
[2]
  systemic side effects: has not been reported to effect any systemic side effects
[3]
  drug related abnormalities or effects on the offspring: no drug related abnormalities or effects on the offspring were found
[4]
  organ damage or general toxicity: no significant organ damage or general toxicity
